Measured values: patent US11331294B2, “Benzoquinone derivative E3330 in combination with chemotherapeutic agents for the treatment of bladder cancer” (Indiana University Research and Technology Corporation, priority 2007, dated 2022)
pIC50: −log10 of the molar value.

Key:
STAT3 = assay: STAT3-driven luciferase reporter; assay type: cell-based, human; conditions: T24 and UC3 cells induced with IL-6, IC50 concentration, 24 h
Procedure: (§1) FIGS. 36A-36H. […] In cytokine-induced T24 and UC3 cells NFκB-driven luciferase (FIG. 36A), STAT3-driven luciferase (FIG. 36B), and AP-1-driven luciferase (FIG. 36C) were quantified and normalized via Renilla following treatment with the corresponding cell growth-inhibitory IC50 concentrations. T24 cells were treated with APX2009 (8.5 μM) and APX2014 (6.5 μM), and UC3 cells were treated with APX2009 (6.1 μM) and APX2014 (4.6 μM) for 24 h. (*-p<0.05 APX treated vs vehicle, n=4). […] In the panels of FIGS. 36F & 36G, co-expression of survivin and APE1/Ref-1 was analyzed in superficial (FIG. 36F) and invasive human bladder tumors (FIG. 36G) in patients, and found nearly universal overlap of positivity in both in human samples. This was also true in cisplatin-refractory patients from the tissue microarray specimens (FIG. 36H).
(§2) The transcriptional activity of NFκB, STAT3, and AP-1 is under redox control by APE1/Ref-1. Therefore, NFκB, STAT3, or AP-1 transcriptional activity was quantified following treatment with APE1/Ref-1 redox inhibitors (FIGS. 36A-36C).

survivin and Cyclin D1 = assay: Western blot of survival and proliferation proteins in cells; assay type: cell-based, human; conditions: immunoblot
Procedure: as §1
Whole cell extracts were prepared using RIPA (radioimmunoprecipitation) buffer containing protein inhibitors (1:100 PMSF, 1:100 orthovanadate and 1:100 protease inhibitor). Total protein concentration was determined via Lowry or BCA assay. 10-50 μg/well of each lysate was separated by SDS-PAGE using a 12% SDS-polyacrylamide gel. Blots were blocked with 5% nonfat dry milk in 1×TBS for 1 h and incubated overnight with primary antibodies to either APE1/Ref-1 (1:1000 dilution, Novus, NB-100-116), survivin (1:1000, Cell Signaling), Cyclin D1 (1:500, Abcam), PARP-1 (1:1000, Cell Signaling) or GAPDH (1:5000, Cell Signaling). After blots were washed three-six times with TBS-Tween, blots were incubated with HRP-conjugated secondary mouse antibodies (1:5000, Pierce). After washing three-six times with TBS-Tween, blots were visualized by enhanced chemiluminescence (West Pico/West Femto, Pierce).
For further confirmation of a decrease in NFκB and STAT3 transcriptional activity, levels of survivin and Cyclin D1 were examined Both survivin and Cyclin D1 are known to be downstream targets of NFκB and STAT3. […] However, unlike APE1/Ref-1, survivin expression was primarily nuclear in both urothelial confined and invasive lesions.

RP-B-01 spheroids = assay: 3D spheroid growth assay RP-B-01; assay type: cell-based, human; conditions: p<0.01
Excerpt: (§3) RP-B-01 and RP-B-02 cells were resuspended in normal growth media containing 3% Reduced Growth Factor Matrigel (BD Biosciences) at a cell density of 1,500 and 3,000 cells/well, respectively and plated in ultra-low adherence 96-well plates (Corning).
(§4) Spheroids were allowed to form and then treated on days 4, 8, and 12 following plating with media containing 5% serum, 3% Reduced Growth Factor Matrigel, and APE1/Ref-1 inhibitors. Vehicle control, DMSO, was less than 0.01% of the volume, and was equivalent in each well. On Day 15, Alamar blue reagent (LifeTechnologies) was added to each well (10 μL/well) and incubated for 24 hours.
(§5) In order to mimic tumor growth more accurately in a relevant microenvironment and in a more robust model for predicting response to treatment, a three-dimensional (3D) culture model of patient-derived RP-B-01 and RP-B-02 bladder cancer cells was used. Both RP-B-01 and RP-B-02 cell lines are transitional cell carcinoma staged as T4bN1Mx and T2bN0Mx Grade III tumors, respectively.

NFκB = assay: NFκB-driven luciferase reporter; assay type: cell-based, human; conditions: T24 and UC3 cells, IC50 concentration, 24 h
Procedure: as §1, §2

bladder cancer cells = assay: BrdU incorporation assay in cultured cells; assay type: cell-based; conditions: IC50 concentration, 24 hours; control 11.2%±0.84
Procedure: To determine the proliferation rate of cells in response to APE1/Ref-1 redox inhibitors, cells were grown in the culture conditions described above and treated with inhibitors as described above, in chamber slides. After 24 hours in culture with inhibitors or vehicle, all cells were treated with 3.1 μg/ml BrdU (in sterile PBS; 0.1%) for one hour. Cells were fixed and permeablized with 4% paraformaldehyde and stained for BrdU incorporation with the antibody and methodology described in the Roche BrdU labeling Kit, (Risch-Rotkreuz, Switzerland), using secondary antibodies. Positive cells were captured on a Leica 6000 fluorescent microscope and were quantified relative to Hoechst positive nuclei (total live cells).
To further characterize this effect, it was analyzed whether this reduced cell number was due to decreases in proliferation, increases in apoptosis, or both.

UC3 cells = assay: Methylene blue cell growth assay UC3; assay type: cell-based; conditions: Homo sapiens, read-out: cell growth-inhibitory IC50
Procedure: (§6) FIGS. 31A & 31B. Treatment with APE1/Ref-1 inhibitors potently blocks bladder cancer cell proliferation and activated Caspase 3/7. […] The IC50 values for FIG. 31A were determined using the methylene blue assay, n=4. […] T24 and UC3 cells were treated with APX2009 and APX2014 at the IC50 and IC90 and monitored over time for activation of capsase 3/7 by an increase in red fluorescence. Time course graphs are shown in FIG. 31B and representative images at 48 hr are shown in FIG. 32A (described more fully below), n=3-4.
as §1, with “36H). […]” for “36H).”

[1] = test system: SW780, T24, UC3 cell lines; assay: Methylene blue cell growth assay, bladder cancer cell panel; assay type: cell-based, human
Procedure: as §6
Bladder cancer cell proliferation was inhibited and apoptosis was induced by potent, selective redox inhibitors of APE1/Ref-1.

UC3 and T24 cells = assay: Incucyte caspase-3/7 apoptosis assay; assay type: cell-based, human; conditions: red fluorescence over time
Procedure: UC3 and T24 cells were plated in 96-well plates at 3,500 cell/well and allowed to attach overnight. Increasing amounts of APX2009 or APX2014 were added to each well along with 1 μM of the caspase reagent (Caspase-3/7 Red, Essen Bioscience) and then the cells were allowed to recover for 2 hours prior to beginning imaging with the Incucyte system (Essen Bioscience). Each well was imaged for phase contrast as well as red fluorescence every 2 hours for 96 hours. The Incucyte software generated movies of the cells following treatment as well as real-time imaging data with red fluorescence normalized to the percent confluency of the well.
To assay for caspase-3/7 mediated apoptosis, the increase in red fluorescence was analyzed over time following the addition of APX2009 and APX2014.

RP-B-02 spheroids = assay: 3D spheroid growth assay RP-B-02; assay type: cell-based, human; conditions: p<0.05
Excerpt: as §3, §4, §5

[2] = test system: RP-B-01, RP-B-02 and T24 cell lines; assay: Alamar blue combination study with cisplatin; assay type: cell-based, human; conditions: combined with increasing concentrations of cisplatin, 72 h
Procedure: FIGS. 30A-30C. […] RP-B-01, RP-B-02, and T24 cell lines were treated with increasing concentrations of cisplatin in combination with a single dose of either APX2009 or APX2014 as indicated (n=3±SE). Cell proliferation was normalized to Saline control and expressed as Fold Change. Combination index (CI) values calculated with Compusyn for combination of APX inhibitors and cisplatin. CI values indicated mainly additivity (0.95-1.2) to synergy (0.8-0.94).
Bladder cancer cell lines (BLCAb001 (RP-B-01) and BLCAb002 (RP-B-02) maintained in RPMI growth medium with 10% FBS were plated at 4,000 cells/well in poly-D-lysine treated 96-well clear bottom black plates and grown overnight in 5% CO2 at 37° C. Cells in monolayer were then treated with increasing concentrations of redox-specific inhibitor APX3330, APX2014 or APX2009 and serially diluted 1:2 in a 5-point dose scheme. For combination studies, cells were treated with both cisplatin and APX compounds to determine efficacy. After 72 hours, fresh RPMI medium with 5% FBS was exchanged, and a fluorescent metabolic indicator, Alamar Blue was added to each well at 10% final concentration. After a 4 hour incubation, plates were read on a Synergy H4 (Bio-Tek) plate reader. […]
APE1/Ref-1 inhibition enhances cisplatin's therapeutic effect. […] Cell proliferation was assessed using Alamar blue 72 h after drug treatment.

T24 cells = assay: Methylene blue cell growth assay T24; assay type: cell-based; conditions: Homo sapiens, T-24, read-out: cell growth-inhibitory IC50
Procedure: as §6
as §1, with “36H). […]” for “36H).”

RP-B-01 cells = assay: Alamar blue monolayer assay RP-B-01; assay type: cell-based, human
Procedure: (§7) Bladder cancer cell lines (BLCAb001 (RP-B-01) and BLCAb002 (RP-B-02) maintained in RPMI growth medium with 10% FBS were plated at 4,000 cells/well in poly-D-lysine treated 96-well clear bottom black plates and grown overnight in 5% CO2 at 37° C. Cells in monolayer were then treated with increasing concentrations of redox-specific inhibitor APX3330, APX2014 or APX2009 and serially diluted 1:2 in a 5-point dose scheme. For combination studies, cells were treated with both cisplatin and APX compounds to determine efficacy. After 72 hours, fresh RPMI medium with 5% FBS was exchanged, and a fluorescent metabolic indicator, Alamar Blue was added to each well at 10% final concentration. After a 4 hour incubation, plates were read on a Synergy H4 (Bio-Tek) plate reader. For each drug dose, background was subtracted and then further normalized to media alone.
(§8) APE1/Ref-1 inhibition enhances cisplatin's therapeutic effect. Cisplatin is the standard of care for bladder cancer, but many patients' tumors are refractory to this therapy. […] To determine this, PDX lines, RP-B-01 and RP-B-02, as well as established cell line, T24, were treated with increasing concentrations of cisplatin in combination with APX compounds (FIGS. 30A-30C). Cell proliferation was assessed using Alamar blue 72 h after drug treatment.

RP-B-02 cells = assay: Alamar blue monolayer assay RP-B-02; assay type: cell-based, human; conditions: 72 h
Procedure: as §7, §8

[3] = test system: subretinal neovascularization (SNV) in vldlr-/- retina; assay: SNV in vldlr-/- knockout mice assay; assay type: in vivo; conditions: antibody injection
Procedure: SNV in vldlr−/− knockout mice assay. […] Experiments were carried out in very-low-density lipoprotein receptor (vldr) knockout mice to determine the effect of APX3330 on inhibition of SNV development in the vldlr−/− mutant. Each animal received a single intravitreal injection of 1 μl volume of BSS as a vehicle control and the fellow eye received 1 μl of […] APX3330. The final concentration of APX3330 was equivalent to approximately 20 μM in the retina. Quantitative measurement of SNV was carried out one week after the treatment in the whole mount retina after lectin-FITC staining. […] The apparent increase of SNV after antibody injection could be due to foreign protein triggered immune response which has been reported before (Tator et al., 2008). APX3330 reduced the number of SNV at a statistically significant level (p<0.01 in paired t-test). […] The Ape1/Ref-1 inhibitor offers a new approach to control angiogenesis for advanced macular degeneration (AMD) treatment.

endothelial cells = assay: In vitro tube formation assay; assay type: cell-based; conditions: dose dependent
Excerpt: In vitro tube formation assay.

In the case of `CCC/C(=C\C1=C(OC)C(=O)c2ccccc2C1=O)C(=O)NOC` [APX2014], the STAT3 transcriptional activity (STAT3) was “reduced the transcriptional activity of NFκB and STAT3”, the “expression of c-Myc, Bcl-2, Bcl-XL” value (survivin and Cyclin D1) was “No change in expression” and the “expression of survivin and Cyclin D1” value (survivin and Cyclin D1) was “significantly down-regulated”. For the same compound, the “relative sensitivity of RP-B-01 cells in 3D culture” value (RP-B-01 spheroids) was “significantly more sensitive to APX2014 than APX2009”, the NFκB transcriptional activity (NFκB) was “reduced the transcriptional activity of NFκB and STAT3” and the BrdU-positive cells (bladder cancer cells) was 7.2%±0.49. The pIC50 (UC3 cells) was 5.34, the “fold lower IC50 than APX3330” value [1] was 11 fold and the caspase-3/7 activation (UC3 and T24 cells) was “dose-dependent increase in caspase activation”. The “potency in RP-B-02 cells in 3D culture relative to APX3330” value (RP-B-02 spheroids) was “more potent in the RP-B-02 cells than parent compound APX3330”, the “cellular proliferation when combined with cisplatin” value [2] was “further reduction in cellular proliferation” and the pIC50 (T24 cells) was 5.19.

For `N.N.[Cl][Pt][Cl]` [cisplatin], the “resistance of RP-B-01 relative to RP-B-02 cells” value (RP-B-01 cells) was “at least 3 fold”, the pIC50 (RP-B-01 cells; RP-B-01 cells, 72 h) was 5.84 and the pIC50 (RP-B-02 cells) was 6.30.

“AVASTIN®: VEGF antibody [reference compound]” was tested, and the “inhibition to the number of SNV” value [3] was “neither AVASTIN® (VEGF antibody) nor bFGF antibody treatment showed any sign of inhibition” and the “formation of blood-vessel-like tubules” value (endothelial cells) was “prevented formation of blood-vessel-like tubules”.
